Source: PMC11803819, “Chemical composition, antioxidant activities, and enzyme inhibitory effects of Lespedeza bicolour Turcz. essential oil” (Journal of Enzyme Inhibition and Medicinal Chemistry, 2025)
Converted amounts (≈) assume the structure as drawn.

Assays:
[1] = system: acetylcholinesterase (AChE); conditions: previous studies; cited from earlier work
[2] = ABTS radical scavenging assay; conditions: positive control
Experimental: The experimental procedure is derived from the previous methods with some modifications[35]^,[36]. A mixture of 7.0 mM 2,2-azinobis(3-ethylbenzothiazoline-6-sulfonate) (ABTS) solution and 2.6 mM potassium persulfate was prepared to generate the ABTS^•+ free radical. The mixture was subsequently stored in the dark at room temperature for 12 h, facilitating the entire generation of the ABTS^•+ free radical. Additionally, ethanolic EO solutions were prepared at 50, 25, 10, 5, 2.5, and 1 mg/mL concentrations. A microplate reader (Epoch, Biotech company, Minneapolis, MN, USA) was utilised to ascertain the absorbance of the solution, delineated as the absorbance at 734 nm six minutes post-initiation of the reaction. For comparison, ethanol was used as the blank and gradient-diluted solvent. Meanwhile, 0.5 mg/mL 6‐hydroxy‐2,5,7,8‐tetramethylchroman‐2‐carboxylic acid (Trolox) was utilised as the positive control. The ABTS radical scavenging capacity (RSC%) was calculated using the Equation (1). (1) RSC%=A0−A/A0×100% where A0 and A are the absorbance of 200 μL diluted ABTS^•+ solution mixed with 50 μL ethanol and 50 μL sample solution, respectively, at 734 nm. IC50 was then calculated. All tests were performed in triplicates.

[3] = DPPH radical scavenging assay; conditions: positive control
Experimental: The experimental procedure was adapted from previous research with minor modifications. The concentrations of Trolox (positive control) and the mother solution of the essential oil EO were 1.0 mg/mL and 20 mg/mL, respectively, in an ethanolic system. 50 μL of the positive control or EO solution was pipetted into a 96‐well microplate and 200 μL of a 2,2-diphenyl-1-picrylhydrazyl (DPPH) solution. The microplate was incubated in the dark at 25 °C for 30 min, and then the absorbance was measured at 517 nm using an Epoch microplate absorbance spectrophotometer (Epoch, Biotech company, Minneapolis, MN, USA). The DPPH radical scavenging capacity (RSC%) was calculated using the Equation (2). […] (2) RSC%=(1−ASample−ASample Blank/AControl)×100% where, ASample is the absorbance of the tested sample at different concentrations, AControl is the absorbance of the control (ethanolic DPPH solution), and ASample Blank is the absorbance of the ethanol sample without DPPH.

[4] = molecular target: β-lactamase; conditions: cited from earlier work

Sequence of acetylcholinesterase (AChE) (P22303 32-614, species assumed): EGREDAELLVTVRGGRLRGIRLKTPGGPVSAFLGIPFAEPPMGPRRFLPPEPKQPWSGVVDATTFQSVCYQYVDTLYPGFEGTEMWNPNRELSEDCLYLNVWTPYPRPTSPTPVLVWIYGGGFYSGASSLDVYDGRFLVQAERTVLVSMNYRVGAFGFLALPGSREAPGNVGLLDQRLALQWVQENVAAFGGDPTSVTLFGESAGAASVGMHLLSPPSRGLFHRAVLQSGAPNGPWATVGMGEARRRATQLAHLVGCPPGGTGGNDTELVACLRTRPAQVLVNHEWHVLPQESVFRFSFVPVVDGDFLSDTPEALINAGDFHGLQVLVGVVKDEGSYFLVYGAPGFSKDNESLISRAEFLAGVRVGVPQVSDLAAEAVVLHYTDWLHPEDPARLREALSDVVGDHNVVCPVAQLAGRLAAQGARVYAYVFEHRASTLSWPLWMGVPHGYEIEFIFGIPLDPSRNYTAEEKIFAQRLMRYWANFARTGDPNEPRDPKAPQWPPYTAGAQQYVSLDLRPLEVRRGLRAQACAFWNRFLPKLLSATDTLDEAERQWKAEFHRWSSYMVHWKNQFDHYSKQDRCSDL

C=C[C@](C)(O)CC[C@@H]1[C@@]2(C)CCCC(C)(C)[C@@H]2CC[C@@]1(C)O [Sclareol]
Inhibition against AChE [1]: significant inhibition

Cc1c(C)c2c(c(C)c1O)CCC(C)(C(=O)O)O2 (stereo not shown) [Trolox, 6‐hydroxy‐2,5,7,8‐tetramethylchroman‐2‐carboxylic acid]
IC50 of ABTS radical scavenging capacity [2]: 6.15 ± 0.15 µg/mL | IC50 of DPPH scavenging capacity [3]: 9.94 ± 0.20 µg/mL

COC(=O)C=Cc1ccccc1 [methyl cinnamate]
IC50 [4]: 11.6 µg/mL (≈ 71.5 µM)
